What was measured:
[1] = test system: SMN2 minigene mRNA (SMN2-A minigene) in HEK293H cells; experiment: SMN2 minigene mRNA splicing RT-qPCR assay in cultured cells; format: cell-based, human; conditions: Homo sapiens, HEK293-H; concentration increasing full length SMN2 mRNA 1.5-fold relative to vehicle-treated cells; HEK293H cells with SMN2-A minigene, 24 hours, 7-point concentration data; read-out: EC1.5x for production of full length SMN2 mRNA
Summary of the method: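 HEK293H cells stably carrying SMN2-A minigene treated with compounds (7-point, 3.16-fold dilutions, duplicates) for 24 h at 37 °C. Full-length exon 7-containing minigene mRNA measured by multiplex RT-qPCR with GAPDH, normalized and expressed relative to vehicle (modified ΔΔCt); EC1.5× is concentration giving 1.5-fold increase.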

[2] = test system: Smn protein in SMA patient fibroblast cells (GM03813); experiment: Smn protein assay in cultured cells (SMN HTRF); format: cell-based, human; conditions: SMA patient fibroblast cells, 48 hours; for EC1.5x for Smn protein expression: 7-point concentration curve, SMN HTRF, concentration producing 1.5 times Smn protein vs DMSO vehicle control; for maximum fold (Fold) increase of Smn protein: 7-point concentration data, fold relative to vehicle control
Summary of the method: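 SMA patient fibroblasts (5,000/well, DMEM-10% FBS) treated 48 h at 37° C with 7-point, 3.16-fold compound series in triplicate; lysates read by SMN HTRF (665/620 nm ratio). Fold Smn increase over DMSO vehicle derived; EC1.5× is concentration giving 1.5-fold Smn, with maximum fold also reported.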

Row | melting point | SMILES | EC (1.5-fold increase) [1] | EC1.5x for Smn protein expression [2] | maximum fold (Fold) increase of Smn protein [2]
1 | 212 to 214 °C | CCN1CCN(c2ccc3nc(-c4cc(F)c5nc(C)oc5c4)cc(=O)n3c2)CC1 [Compound 309, 7-(4-ethylpiperazin-1-yl)-2-(4-fluoro-2-methyl-1,3-benzoxazol-6-yl)-4H-pyrido[1,2-a]pyrimidin-4-one] | < 0.1 µM | **** (an EC1.5x≤0.3 μM is indicated by four stars (****)) | **** (a fold increase between >1.5 and ≤1.65 is indicated by four stars (****))
2 | 175 to 178 °C | CCCN1CCN(c2ccc3nc(-c4cc(F)c5nc(C)oc5c4)cc(=O)n3c2)CC1 [Compound 310, 2-(4-fluoro-2-methyl-1,3-benzoxazol-6-yl)-7-(4-propylpiperazin-1-yl)-4H-pyrido[1,2-a]pyrimidin-4-one] | < 0.1 µM | *** (an EC1.5× between >0.3 μM and ≤1 μM is indicated by three stars (***)) | *** (a fold increase between >1.35 and ≤1.5 is indicated by three stars (***))
3 | 223 to 227 °C | COc1ccc(-c2cc(=O)n3cc(N4C[C@H]5CCCN(C)[C@H]5C4)ccc3n2)cc1F [Compound 313, 2-(3-fluoro-4-methoxyphenyl)-7-[(4aR,7aR)-1-methyloctahydro-6H-pyrrolo[3,4-b]pyridin-6-yl]-4H-pyrido[1,2-a]pyrimidin-4-one] | 1 to 3 µM |  | * (A maximum fold increase of ≤1.2 is indicated by one star (*))
4 | 278 to 281 °C | COc1ccc(-c2ccc3nc(C4CCNCC4)cc(=O)n3c2)cc1F [Compound 316, 7-(3-fluoro-4-methoxyphenyl)-2-(piperidin-4-yl)-4H-pyrido[1,2-a]pyrimidin-4-one] | 0.1 to 0.3 µM | ** (an EC1.5× between >1 μM and ≤3 μM is indicated by two stars (**)) | ***** (a fold increase >1.65 is indicated by five stars (*****))
5 | 202 to 205 °C | COc1ccc(-c2ccc3nc(C4CCN(C)CC4)cc(=O)n3c2)cc1F [Compound 317, 7-(3-fluoro-4-methoxyphenyl)-2-(1-methylpiperidin-4-yl)-4H-pyrido[1,2-a]pyrimidin-4-one] | 0.3 to 1 µM | ** (an EC1.5× between >1 μM and ≤3 μM is indicated by two stars (**)) | **** (a fold increase between >1.5 and ≤1.65 is indicated by four stars (****))
6 | 288 to 290 °C | CCN1CCN(c2ccc3cc(-c4ccc5nc(C)oc5c4)cc(=O)n3c2)C[C@@H]1C [Compound 324, 7-[(3S)-4-ethyl-3-methylpiperazin-1-yl]-2-(2-methyl-1,3-benzoxazol-6-yl)-4H-quinolizin-4-one] | 0.3 to 1 µM |  | *** (a fold increase between >1.35 and ≤1.5 is indicated by three stars (***))
7 | > 300 °C | Cc1nc2ccc(-c3cc(=O)n4cc(N5CCN(C)[C@@H](C)C5)ccc4c3)cc2o1 [Compound 325, 7-[(3S)-3,4-dimethylpiperazin-1-yl]-2-(2-methyl-1,3-benzoxazol-6-yl)-4H-quinolizin-4-one] | 0.3 to 1 µM |  | *** (a fold increase between >1.35 and ≤1.5 is indicated by three stars (***))
8 | 288 to 290 °C | Cc1nc2ccc(-c3cc(=O)n4cc(N5CCC(N)CC5)ccc4c3)cc2o1 [Compound 326, 7-(4-aminopiperidin-1-yl)-2-(2-methyl-1,3-benzoxazol-6-yl)-4H-quinolizin-4-one] | 1 to 3 µM | ** (an EC1.5× between >1 μM and ≤3 μM is indicated by two stars (**)) | *** (a fold increase between >1.35 and ≤1.5 is indicated by three stars (***))

The next lines start with the compound.

Row | SMILES | melting point | EC (1.5-fold increase) [1] | EC1.5x for Smn protein expression [2] | maximum fold (Fold) increase of Smn protein [2]
9 | Cc1nc2c(F)cc(-c3cc(=O)n4cc(N5CCN(C)[C@@H](C)C5)ccc4n3)cc2o1 [Compound 307, 7-[(3S)-3,4-dimethylpiperazin-1-yl]-2-(4-fluoro-2-methyl-1,3-benzoxazol-6-yl)-4H-pyrido[1,2-a]pyrimidin-4-one] | 194 to 196 °C | < 0.1 µM | **** (an EC1.5x≤0.3 μM is indicated by four stars (****)) | **** (a fold increase between >1.5 and ≤1.65 is indicated by four stars (****))
10 | CCN1C[C@@H]2CN(c3ccc4nc(-c5ccc(OC)c(F)c5)cc(=O)n4c3)C[C@@H]2C1 [Compound 311, 7-[(3aR,6aS)-5-ethylhexahydropyrrolo[3,4-c]pyrrol-2(1H)-yl]-2-(3-fluoro-4-methoxyphenyl)-4H-pyrido[1,2-a]pyrimidin-4-one] | 157 to 167 °C | 0.1 to 0.3 µM |  | ** (a fold increase between >1.2 and ≤1.35 is indicated by two stars (**))
11 | COc1ccc(-c2cc(=O)n3cc(C4=CCNCC4)cc(C)c3n2)cc1F [Compound 312, 2-(3-fluoro-4-methoxyphenyl)-9-methyl-7-(1,2,3,6-tetrahydropyridin-4-yl)-4H-pyrido[1,2-a]pyrimidin-4-one] | 211 to 215 °C | < 0.1 µM | **** (an EC1.5x≤0.3 μM is indicated by four stars (****)) | **** (a fold increase between >1.5 and ≤1.65 is indicated by four stars (****))
12 | COc1ccc(-c2cc(=O)n3cc(N4CCN[C@H](C)C4)cc(C)c3n2)cc1OC [Compound 314, 2-(3,4-dimethoxyphenyl)-9-methyl-7-[(3R)-3-methylpiperazin-1-yl]-4H-pyrido[1,2-a]pyrimidin-4-one] | 177 to 184 °C | < 0.1 µM | *** (an EC1.5× between >0.3 μM and ≤1 μM is indicated by three stars (***)) | **** (a fold increase between >1.5 and ≤1.65 is indicated by four stars (****))
13 | COc1ccc(-c2cc(=O)n3cc(C4=CCN(C)CC4)cc(C)c3n2)cc1F [Compound 315, 2-(3-fluoro-4-methoxyphenyl)-9-methyl-7-(1-methyl-1,2,3,6-tetrahydropyridin-4-yl)-4H-pyrido[1,2-a]pyrimidin-4-one] | 184 to 190 °C | < 0.1 µM |  | *** (a fold increase between >1.35 and ≤1.5 is indicated by three stars (***))
14 | CCN1CC=C(c2ccc3nc(-c4cc(F)c5nc(C)oc5c4)cc(=O)n3c2)CC1 [Compound 318, 7-(1-ethyl-1,2,3,6-tetrahydropyridin-4-yl)-2-(4-fluoro-2-methyl-1,3-benzoxazol-6-yl)-4H-pyrido[1,2-a]pyrimidin-4-one] | 151 to 154 °C | < 0.1 µM | **** (an EC1.5x≤0.3 μM is indicated by four stars (****)) | ***** (a fold increase >1.65 is indicated by five stars (*****))
15 | CCCN1CC=C(c2ccc3nc(-c4cc(F)c5nc(C)oc5c4)cc(=O)n3c2)CC1 [Compound 319, 2-(4-fluoro-2-methyl-1,3-benzoxazol-6-yl)-7-(1-propyl-1,2,3,6-tetrahydropyridin-4-yl)-4H-pyrido[1,2-a]pyrimidin-4-one] | 159 to 162 °C | < 0.1 µM | **** (an EC1.5x≤0.3 μM is indicated by four stars (****)) | **** (a fold increase between >1.5 and ≤1.65 is indicated by four stars (****))

From patent publication US11753407B2, “Compounds for treating spinal muscular atrophy” (PTC Therapeutics, Inc., priority 2012, dated 2023)
